Consider 45 molecules from ChEMBL document CHEMBL5226347, “Discovery of Chromane-6-Sulfonamide Derivative as a Potent, Selective, and Orally Available Novel Retinoic Acid Receptor-Related Orphan Receptor γt Inverse Agonist” (J Med Chem, 2021).

The structures appear in SMILES notation. In brackets after ≈: the same amount, converted by molar mass.

Data set [1] is described as follows: Lipophilicity, log D of the compound at pH 7.4. The conditions noted are these: buffer. In kind it is physicochemical.
Data set [2] in a line: Metabolic stability in human liver microsomes assessed as half life incubated for 5 to 30 mins by HPLC-MS/MS analysis. In kind it is ADME, Microsome. The conditions noted are these: time 5-30 min; for t1/2: microsomes. For orientation: Microsomes from liver hold many membrane-bound enzymes, among them those of drug oxidation.
A short description of data set [3]: Metabolic stability in human liver assessed as intrinsic clearance incubated for 5 to 30 mins by HPLC-MS/MS analysis. In kind it is ADME, tissue-based. The conditions noted are these: liver (preparation not stated), time 5-30 min, read-out: CLH.
Data set [4] can be described thus: Metabolic stability in human liver microsomes assessed as parent compound remaining measured at 60 mins by HPLC-MS/MS analysis. The settings on record: 1 h. In kind it is ADME, Microsome.
The target of data set [5] is T1, Nuclear receptor ROR-gamma (Homo sapiens, UniProt P51449).
T1 sequence (P51449 whole entry): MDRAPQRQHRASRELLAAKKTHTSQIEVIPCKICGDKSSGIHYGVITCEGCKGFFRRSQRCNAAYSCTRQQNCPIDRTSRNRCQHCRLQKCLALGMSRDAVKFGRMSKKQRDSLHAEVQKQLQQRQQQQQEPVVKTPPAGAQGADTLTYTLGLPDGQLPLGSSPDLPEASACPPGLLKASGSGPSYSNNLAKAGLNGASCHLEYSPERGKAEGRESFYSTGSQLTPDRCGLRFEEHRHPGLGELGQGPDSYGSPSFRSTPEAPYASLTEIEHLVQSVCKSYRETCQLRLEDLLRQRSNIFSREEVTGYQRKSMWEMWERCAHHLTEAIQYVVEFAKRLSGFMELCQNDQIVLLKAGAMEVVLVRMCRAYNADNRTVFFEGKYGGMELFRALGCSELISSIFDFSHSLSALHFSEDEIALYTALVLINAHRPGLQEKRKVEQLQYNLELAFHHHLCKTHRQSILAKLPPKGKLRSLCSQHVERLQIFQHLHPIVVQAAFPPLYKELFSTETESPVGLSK
In words: Inhibition of RORgammat in human Jurkat cells assessed as inhibition of RORgammat transcriptional activity incubated for 10 mins by luciferase reporter gene assay. In kind it is cell-based.

Data set [6] addresses T1, Nuclear receptor ROR-gamma. Description: Displacement of BODIPY from APC-labelled human RORgammat LBD incubated for 15 mins by LANCE detection analysis.
Data set [7] relates to Mus musculus. Description: Antiinflammatory activity against imiquimod-induced Balb/c mouse skin inflammation model assessed as inhibition of IL-6 level at 20 mg/kg, po measured for 13 days. It counts as functional. On the set-up: scale not given: the % may be the effect or the level left. The conditions noted are these: time 13 day.
For data set [8], the system named is Mus musculus. In words: Antiinflammatory activity against imiquimod-induced Balb/c mouse skin inflammation model assessed as inhibition of IL-17A level at 20 mg/kg, po measured for 13 days. The conditions noted are these: time 13 day. On the set-up: scale not given: the % may be the effect or the level left. It counts as functional.
Data set [9] can be described thus: Solubility of compound in aqueous buffer at pH 7.4. It counts as physicochemical.
Data set [10] has as its system Mus musculus. Description: Antiinflammatory activity against imiquimod-induced Balb/c mouse skin inflammation model assessed as reduction in severity index score at 20 mg/kg, po BID for 13 days. In kind it is functional. Set-up: scale not given: the % may be the effect or the level left. The settings on record: time 13 day.

Broadly, the logD is lipophilicity at a set pH, counting ionised and neutral species. The half-life is the time needed for the level to fall by half in the phase considered. What is called IC50 is the midpoint of a concentration-inhibition curve. The term solubility denotes the concentration that dissolves in the medium under given conditions.

The molecule `CC(C)CN(c1ccc(N(C)C)cc1)S(=O)(=O)c1ccc2c(c1)C(O)CC(C1CCOCC1)O2` (centres undefined) returned a logD in data set [1] of 3.51. On to `CCc1ccc(N(CC(C)C)S(=O)(=O)c2ccc3c(c2)C(O)CC(C2CCOCC2)O3)cc1` (centres undefined), for which, in [2] (liver microsomes), the half-life is 222 min. Moreover, the CLint scaled in data set [3] was found to be 330 mL/min/kg. In addition, the logD in [1] came out at 4.12. As for `CCc1ccc(N(CC(C)C)S(=O)(=O)c2ccc3c(c2)C(O)CC(CC2CCOCC2)O3)cc1` (centres undefined), the logD in data set [1] stood at 4.44. In turn, `CCc1ccc(N(CC(C)C)S(=O)(=O)c2ccc3c(c2)C(C)CC(C2CCOCC2)O3)cc1` (centres undefined) gave a logD in data set [1] of 5.71. In the case of `CCc1ccc(N(CC(C)C)S(=O)(=O)c2ccc3c(c2)C=CC(C2CCOCC2)O3)cc1` (centres undefined), in data set [1], the logD is 5.52. Still for that read-out and setting: in the case of `CCc1ccc(NS(=O)(=O)c2ccc3c(c2)C(O)CC(C2CCOCC2)O3)cc1` (centres undefined) it was 2.59.

In data set [1], `CCc1ccc(N(CC(C)C)S(=O)(=O)c2ccc3c(c2)C(O)C[C@H](C2CCOCC2)O3)cc1` (some centres undefined) came in with a logD of 4.12. In the case of `O=S(=O)(c1ccc2c(c1)C(O)CC(C1CCOCC1)O2)N1CCCC1c1ccccc1C(F)(F)F` (centres undefined), in data set [2], the t1/2 is 7.6 min. For the same molecule, the CLint scaled in data set [3] is 172 mL/min/kg. In addition, in [4], the Stability stood at 5.2%. The logD in [1] was determined as 3.41. For the molecule `CC(C)CN(c1cc2ccccc2s1)S(=O)(=O)c1ccc2c(c1)C(O)CC(C1CCOCC1)O2` (centres undefined), in data set [2], the t1/2 was determined as 25.2 min. For the same molecule, the CLint scaled in [3] stood at 53.7 mL/min/kg. Besides, the Stability in data set [4] came to 28.5%. Besides, the logD in [1] stood at 3.92. Molecule `CCc1ccc(N(Cc2ccccc2)S(=O)(=O)c2ccc3c(c2)C(O)CC(C2CCOCC2)O3)cc1` (centres undefined) came in with a logD in data set [1] of 4.68. Same read-out and setting: for `CCc1ccc(N(CC(C)C)S(=O)(=O)c2ccc(OCC3CCOCC3)c(CN)c2)cc1` the value was 3.25; for `CCc1ccc(N(CC(C)C)S(=O)(=O)c2ccc3c(c2)C(O)CC(C(C)C2CCOCC2)O3)cc1` (centres undefined), 5.04; for `CCc1ccc(N(CC(C)C)S(=O)(=O)c2ccc3c(c2)C(O)CC(C2CCN(C)CC2)O3)cc1` (centres undefined), 2.67. Still for that read-out and setting: in the case of `CC(C)CN(c1ccccc1F)S(=O)(=O)c1ccc2c(c1)C(O)CC(C1CCOCC1)O2` (centres undefined) it was 3.39. Turning to `O=S(=O)(c1ccc2c(c1)C(O)CC(C1CCOCC1)O2)N1CCC(c2ccccc2)CC1` (centres undefined), the IC50 in data set [5] and in [6] was more than 10 µM in each case. In addition, the logD in data set [1] is 2.63. For the molecule `Cc1ccc(N(C2CCC2)S(=O)(=O)c2ccc3c(c2)C(O)CC(C2CCOCC2)O3)c(C)c1` (centres undefined), the logD in data set [1] worked out at 3.77. In data set [1], `CCc1ccc(N(CC(C)C)S(=O)(=O)c2ccc3c(c2)C(O)CC(C2CCNCC2)O3)cc1` (centres undefined) had a log distribution coefficient (logD) of 1.04. `CCc1ccc(N(CC(C)C)S(=O)(=O)c2ccc3c(c2)C(N)CC(C2CCOCC2)O3)cc1` (centres undefined) showed a pH-dependent lipophilicity (logD) in data set [1] of 3.08. The molecule `CC(C)CN(c1ccc(F)cc1F)S(=O)(=O)c1ccc2c(c1)C(O)CC(C1CCOCC1)O2` (centres undefined) yielded a logD in data set [1] of 3.53.

The molecule `CC(C)CN(c1cccc(F)c1)S(=O)(=O)c1ccc2c(c1)C(O)CC(C1CCOCC1)O2` (centres undefined) displayed a logD in [1] of 3.39. On the same count and under the same terms, in the case of `CC(C)CN(C1CCc2ccc(F)cc21)S(=O)(=O)c1ccc2c(c1)C(O)CC(C1CCOCC1)O2` (centres undefined) it was 3.94; in that of `Cc1cc(C(O)(C(F)(F)F)C(F)(F)F)ccc1N(CC(C)C)S(=O)(=O)c1ccc2c(c1)C(O)CC(C1CCOCC1)O2` (centres undefined), 4.37. In the case of `CC(C)CN(c1ccc(C#N)cc1)S(=O)(=O)c1ccc2c(c1)C(O)CC(C1CCOCC1)O2` (centres undefined), the t1/2 in data set [2] was determined as 0.8 min. Also, in [3], the CLint scaled came out at 1520 mL/min/kg. For the same molecule, the Stability in data set [4] came out at 0.3%. The logD in data set [1] turned out to be 3.07. In turn, `CCc1ccc(N(CC(C)C)S(=O)(=O)c2ccc3c(c2)C(O)CC(C2CCN(S(C)(=O)=O)CC2)O3)cc1` (centres undefined) had a logD in [1] of 3.22. In the case of `O=S(=O)(Nc1ccccc1C(F)(F)F)c1ccc2c(c1)C(O)CC(C1CCOCC1)O2` (centres undefined), the IC50 in data set [5] and in data set [6] was more than 10 µM in each case. Besides, the logD in data set [1] was found to be 2.41.

Molecule `CCc1ccc(N(C2COC2)S(=O)(=O)c2ccc3c(c2)C(O)CC(C2CCOCC2)O3)cc1` (centres undefined) showed a pH-dependent lipophilicity (logD) in data set [1] of 2.63. On the same count and under the same terms, in the case of `CCc1ccc(N(CC(C)C)S(=O)(=O)c2ccc3c(c2)C(O)C[C@@H](C2CCOCC2)O3)cc1` (some centres undefined) it was 4.12; in that of `CCc1ccc2c(c1)CC(C)CN2S(=O)(=O)c1ccc2c(c1)C(O)CC(C1CCOCC1)O2` (centres undefined), 3.68.

With `CC(C)CN(c1ccccc1C(F)(F)F)S(=O)(=O)c1ccc2c(c1)C(O)CC(C1CCOCC1)O2` (centres undefined), in data set [1], the logD amounted to 4.14. On the same count and under the same terms, for `CCc1ccc(N(CC(C)C)S(=O)(=O)c2ccc3c(c2)CCC3OC2CCOCC2)cc1` (centres undefined) the value was 4.96. Molecule `CCc1ccc(N(CC(C)C)S(=O)(=O)c2ccc3c(c2)CCC(C2CCOCC2)O3)cc1` (centres undefined) registered a logD in data set [1] of 5.38. For the molecule `CCc1ccc(N(CC(C)C)S(=O)(=O)c2ccc3nc(C4CCOCC4)cc(O)c3c2)cc1`, in data set [1], the logD came to 4.97. Turning to `CCc1ccc(N(CC(C)C)S(=O)(=O)c2ccc3c(c2)C(C)(O)CC(C2CCOCC2)O3)cc1` (centres undefined), the logD in data set [1] came out at 4.19. In data set [1], `CCc1ccc(N(CC2CCC2)S(=O)(=O)c2ccc3c(c2)C(O)CC(C2CCOCC2)O3)cc1` (centres undefined) had a logD of 4.01. As to `CCc1ccc(N(CC(F)(F)F)S(=O)(=O)c2ccc3c(c2)C(O)CC(C2CCOCC2)O3)cc1` (centres undefined), the logD in [1] stood at 3.88. Regarding `CCc1ccc(N(CC(C)C)S(=O)(=O)c2ccc3c(c2)C(OC)CC(C2CCOCC2)O3)cc1` (centres undefined), in data set [1], the logD stood at 4.69. Molecule `CC(C)CN(Cc1ccccc1C(F)(F)F)S(=O)(=O)c1ccc2c(c1)C(O)CC(C1CCOCC1)O2` (centres undefined) gave a logD in [1] of 4.23. `CCc1ccc(N(CC(C)C)S(=O)(=O)c2ccc3c(c2)C(O)CC(C2CCN(C(=O)C4CCCC4)CC2)O3)cc1` (centres undefined) returned a logD in data set [1] of 5.04. Regarding `CCc1ccc(N(CC(C)C)S(=O)(=O)c2ccc(OCC3CCOCC3)c3c2CCC3O)cc1` (centres undefined), the logD in data set [1] came out at 4.55. In [1], `CCc1ccc(N(CC(C)C)S(=O)(=O)c2ccc(OCC3CCOCC3)c3c2CCCC3O)cc1` (centres undefined) returned a logD of 4.95. For `CC(C)CN(c1ccc(F)cc1)S(=O)(=O)c1ccc2c(c1)C(O)CC(C1CCOCC1)O2` (centres undefined), in [1], the pH-dependent lipophilicity (logD) came to 3.39. For `Cc1ccc(N(CC(C)C)S(=O)(=O)c2ccc3c(c2)C(O)CC(C2CCOCC2)O3)c(C)c1` (centres undefined), in data set [1], the logD was found to be 4.19. Turning to `CCS(=O)(=O)c1ccc(CN(CC(C)C)S(=O)(=O)c2ccc3c(c2)C(O)CC(C2CCOCC2)O3)nc1` (centres undefined), the IC50 in [5] and in data set [6] was more than 10 µM each time. Besides, the logD in data set [1] turned out to be 1.42. For `CCc1ccc(N(CC(C)C)S(=O)(=O)c2ccc(OCC3CCOCC3)c(CO)c2)cc1` [GSK2981278], the t1/2 in data set [2] stood at 0.8 min. The Activity in the data set with Mus musculus [7] stood at 59.4%; in the data set with Mus musculus [8], 82.2%; in the data set with Mus musculus [10], 61.5%. The CLint scaled in data set [3] was 1610 mL/min/kg. This molecule also came in with a solubility in data set [9] of 2.12 µg/mL (≈ 4.59 µM). Besides, the Stability in data set [4] was 0.2%. This molecule showed a logD in data set [1] of 4.1. Regarding `CCc1ccc(N(CC(C)C)S(=O)(=O)c2ccc3c(c2)C(OC2CCCCC2)CC(C2CCOCC2)O3)cc1` (centres undefined), in [1], the pH-dependent lipophilicity (logD) was determined as 6.28.
